Molecules are shown by their SMILES.

One experiment concerns the target T1, 5-HT2C receptor (Homo sapiens, UniProt P28335).
T1 construct: host or cells: HEK-293 cells (membrane preparation)
T1 sequence (P28335 33-458): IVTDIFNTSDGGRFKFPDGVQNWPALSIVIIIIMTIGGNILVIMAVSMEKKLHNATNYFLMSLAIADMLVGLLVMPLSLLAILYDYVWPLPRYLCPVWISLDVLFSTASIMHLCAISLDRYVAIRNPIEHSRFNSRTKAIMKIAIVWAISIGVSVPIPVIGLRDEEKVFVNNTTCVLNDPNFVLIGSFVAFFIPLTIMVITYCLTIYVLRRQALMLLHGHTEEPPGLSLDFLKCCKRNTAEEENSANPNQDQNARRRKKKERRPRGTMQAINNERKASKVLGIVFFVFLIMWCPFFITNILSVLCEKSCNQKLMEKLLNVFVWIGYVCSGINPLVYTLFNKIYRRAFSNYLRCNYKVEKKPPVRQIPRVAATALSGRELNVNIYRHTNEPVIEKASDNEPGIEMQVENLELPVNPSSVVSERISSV
Briefly: Eurofins Cerep competition binding assay at 5-HT2C receptor. The following applies: 10 μM test ligand, [125I](±)DOI, recombinant receptor from HEK-293 cells; read-out: HT2C, percent of control-specific binding.

For the next experiment, the target named is T2, alpha2A receptor (Homo sapiens, UniProt P08913).
T2 construct: host or cells: CHO cells (membrane preparation)
T2 sequence (P08913 1-465): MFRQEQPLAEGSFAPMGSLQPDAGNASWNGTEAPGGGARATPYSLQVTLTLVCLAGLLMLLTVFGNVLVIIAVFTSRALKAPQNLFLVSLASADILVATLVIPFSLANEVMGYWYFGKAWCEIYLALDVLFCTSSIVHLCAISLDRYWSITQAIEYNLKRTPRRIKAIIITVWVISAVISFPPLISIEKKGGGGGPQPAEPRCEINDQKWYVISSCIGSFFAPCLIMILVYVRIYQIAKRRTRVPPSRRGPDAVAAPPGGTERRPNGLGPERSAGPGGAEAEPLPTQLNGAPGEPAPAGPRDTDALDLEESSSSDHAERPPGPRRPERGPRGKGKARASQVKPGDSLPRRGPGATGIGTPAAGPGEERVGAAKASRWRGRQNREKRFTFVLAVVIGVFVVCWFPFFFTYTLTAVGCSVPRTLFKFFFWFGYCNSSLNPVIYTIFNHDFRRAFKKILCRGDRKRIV
Nature of the experiment: Eurofins Cerep competition binding assay at alpha2A receptor. The note with it: 10 μM test ligand, [3H]RX 821002, recombinant receptor from CHO cells; read-out: α-2A, percent of control-specific binding.

Another experiment concerns the target T3, MT1 receptor (Homo sapiens, UniProt P48039).
T3 construct: host or cells: CHO cells (membrane preparation)
Nature of the experiment: Eurofins Cerep competition binding assay at MT1 receptor. The following applies: read-out: MT1, percent of control-specific binding, 10 μM test ligand, [125I]2-iodomelatonin, recombinant receptor from CHO cells.

Experiment [1] concerns the target T4, 5-HT1A receptor (Homo sapiens, UniProt P08908).
T4 construct: purchased Perkin Elmer 6110501400UA
T4 sequence (P08908 1-422): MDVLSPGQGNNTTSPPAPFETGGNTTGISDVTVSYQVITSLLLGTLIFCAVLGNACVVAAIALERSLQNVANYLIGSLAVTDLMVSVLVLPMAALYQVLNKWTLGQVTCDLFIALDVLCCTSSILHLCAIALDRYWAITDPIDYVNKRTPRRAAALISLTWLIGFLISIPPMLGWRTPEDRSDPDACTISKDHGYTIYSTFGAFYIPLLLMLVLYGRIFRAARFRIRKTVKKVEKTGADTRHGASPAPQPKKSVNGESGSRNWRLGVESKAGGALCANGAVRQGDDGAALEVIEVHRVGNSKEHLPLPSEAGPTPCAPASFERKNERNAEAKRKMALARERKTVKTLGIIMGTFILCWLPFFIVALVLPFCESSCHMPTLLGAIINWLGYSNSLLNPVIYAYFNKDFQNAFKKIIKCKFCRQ
Briefly: Eurofins Cerep competition binding assay at 5-HT1A receptor. The note with it: 10 μM test ligand, [3H]8-OH-DPAT, recombinant receptor from HEK-293 cells; read-out: HT1A, percent of control-specific binding.

For experiment [2], the target named is T4, 5-HT1A receptor. Briefly: 5-HT1A receptor functional cellular response (cAMP) assay. The experiment is classed as cell-based.
For experiment [3], the target named is T5, serotonin transporter (SERT) (Homo sapiens, UniProt P31645).
T5 construct: host or cells: CHO cells (membrane preparation)
T5 sequence (P31645 whole entry): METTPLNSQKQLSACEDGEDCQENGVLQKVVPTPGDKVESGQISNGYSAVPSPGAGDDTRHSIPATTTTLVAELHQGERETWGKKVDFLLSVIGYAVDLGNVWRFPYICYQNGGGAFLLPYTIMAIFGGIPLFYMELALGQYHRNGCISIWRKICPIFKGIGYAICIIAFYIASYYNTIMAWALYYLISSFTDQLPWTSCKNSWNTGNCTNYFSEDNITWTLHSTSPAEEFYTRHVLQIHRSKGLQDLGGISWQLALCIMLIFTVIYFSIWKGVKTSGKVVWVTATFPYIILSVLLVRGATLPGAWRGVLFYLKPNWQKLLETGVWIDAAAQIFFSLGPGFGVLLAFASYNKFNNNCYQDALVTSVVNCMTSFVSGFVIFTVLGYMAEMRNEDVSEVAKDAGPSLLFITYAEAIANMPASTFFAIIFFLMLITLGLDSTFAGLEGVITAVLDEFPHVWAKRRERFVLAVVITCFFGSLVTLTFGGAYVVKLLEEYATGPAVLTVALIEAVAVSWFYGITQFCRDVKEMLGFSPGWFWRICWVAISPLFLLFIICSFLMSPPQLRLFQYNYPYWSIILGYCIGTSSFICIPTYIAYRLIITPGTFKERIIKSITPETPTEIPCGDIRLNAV
Briefly: biochemical. The class given is binding. The note with it: read-out: SERT, percent of control-specific binding.

For another experiment, the target named is T6, 5-HT7 receptor (Homo sapiens, UniProt P34969).
T6 construct: host or cells: HEK-293 cells (membrane preparation)
T6 sequence (P34969 whole entry): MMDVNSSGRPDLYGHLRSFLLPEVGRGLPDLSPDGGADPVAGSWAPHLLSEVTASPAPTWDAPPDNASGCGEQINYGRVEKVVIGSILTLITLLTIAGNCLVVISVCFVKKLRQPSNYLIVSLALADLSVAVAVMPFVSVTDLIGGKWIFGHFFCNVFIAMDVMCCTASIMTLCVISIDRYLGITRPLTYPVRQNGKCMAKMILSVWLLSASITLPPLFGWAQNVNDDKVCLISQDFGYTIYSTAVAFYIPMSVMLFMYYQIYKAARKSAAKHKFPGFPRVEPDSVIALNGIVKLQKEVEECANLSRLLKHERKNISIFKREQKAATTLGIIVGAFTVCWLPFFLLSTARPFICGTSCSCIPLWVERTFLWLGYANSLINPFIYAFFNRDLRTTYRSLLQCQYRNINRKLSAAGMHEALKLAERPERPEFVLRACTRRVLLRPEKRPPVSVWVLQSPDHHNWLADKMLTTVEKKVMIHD
Nature of the experiment: Eurofins Cerep competition binding assay at 5-HT7 receptor. The note with it: 10 μM test ligand, [3H]LSD, recombinant receptor from HEK-293 cells; read-out: HT7, percent of control-specific binding.

Experiment [4] concerns the target T4, 5-HT1A receptor. Nature of the experiment: 5-HT1A receptor radioligand competition assay (SPA). The experiment is classed as binding. The note with it: 5-HT1A, Ki, competition with 0.5 nM [3H]8-hydroxy-DPAT, membranes containing 5-HT1A.
Experiment [5] has as its target T7, dopamine transporter (DAT) (Homo sapiens, UniProt Q01959).
T7 construct: host or cells: CHO cells (membrane preparation)
Briefly: Eurofins Cerep competition binding assay at dopamine transporter. The following applies: read-out: DAT, percent of control-specific binding, 10 μM test ligand, [3H]BTCP, recombinant transporter from CHO cells.

The target of the next experiment is T8, 5-HT2A receptor (Homo sapiens, UniProt P28223).
T8 construct: purchased PerkinElmer ES-313-M400UA
T8 sequence (P28223 whole entry): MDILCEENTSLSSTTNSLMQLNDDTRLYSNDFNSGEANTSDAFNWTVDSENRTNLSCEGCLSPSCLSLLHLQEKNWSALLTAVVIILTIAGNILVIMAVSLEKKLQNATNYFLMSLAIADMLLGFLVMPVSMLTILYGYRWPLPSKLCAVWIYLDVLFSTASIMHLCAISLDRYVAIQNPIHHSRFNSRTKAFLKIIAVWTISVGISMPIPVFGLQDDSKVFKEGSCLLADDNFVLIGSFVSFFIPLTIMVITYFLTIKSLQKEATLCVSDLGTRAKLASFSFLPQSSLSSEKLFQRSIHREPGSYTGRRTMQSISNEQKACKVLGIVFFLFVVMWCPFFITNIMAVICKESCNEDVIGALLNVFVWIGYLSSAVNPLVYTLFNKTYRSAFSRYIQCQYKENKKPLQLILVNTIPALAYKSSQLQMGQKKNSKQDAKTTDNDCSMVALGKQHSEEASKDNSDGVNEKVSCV
Briefly: biochemical. The experiment is classed as binding. The following applies: competition with 1 nM [3H]ketanserin, membranes containing 5-HT2A, SPA.

The target of the next experiment is T9, 5-HT2B receptor (Homo sapiens, UniProt P41595).
T9 construct: host or cells: CHO cells (membrane preparation)
T9 sequence (P41595 whole entry): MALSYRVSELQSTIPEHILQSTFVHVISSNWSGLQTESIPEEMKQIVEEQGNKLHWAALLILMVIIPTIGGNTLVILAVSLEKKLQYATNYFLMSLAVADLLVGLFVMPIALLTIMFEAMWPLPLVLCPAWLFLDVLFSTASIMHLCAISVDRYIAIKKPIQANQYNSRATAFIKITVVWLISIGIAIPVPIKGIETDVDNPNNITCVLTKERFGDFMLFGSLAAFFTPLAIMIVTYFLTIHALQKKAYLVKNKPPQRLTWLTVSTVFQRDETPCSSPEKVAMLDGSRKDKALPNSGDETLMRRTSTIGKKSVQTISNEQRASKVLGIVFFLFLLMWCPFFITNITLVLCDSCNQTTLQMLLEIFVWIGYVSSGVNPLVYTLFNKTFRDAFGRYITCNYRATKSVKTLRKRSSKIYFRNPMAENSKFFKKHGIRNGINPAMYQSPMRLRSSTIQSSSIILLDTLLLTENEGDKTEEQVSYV
Briefly: Eurofins Cerep competition binding assay at 5-HT2B receptor. The following applies: 10 μM test ligand, [3H]mesulergine, recombinant receptor from CHO cells; read-out: HT2B, percent of control-specific binding.

The target in experiment [6] is T10, norepinephrine transporter (NET) (Homo sapiens, UniProt P23975).
T10 construct: host or cells: CHO cells (membrane preparation)
T10 sequence (P23975 whole entry): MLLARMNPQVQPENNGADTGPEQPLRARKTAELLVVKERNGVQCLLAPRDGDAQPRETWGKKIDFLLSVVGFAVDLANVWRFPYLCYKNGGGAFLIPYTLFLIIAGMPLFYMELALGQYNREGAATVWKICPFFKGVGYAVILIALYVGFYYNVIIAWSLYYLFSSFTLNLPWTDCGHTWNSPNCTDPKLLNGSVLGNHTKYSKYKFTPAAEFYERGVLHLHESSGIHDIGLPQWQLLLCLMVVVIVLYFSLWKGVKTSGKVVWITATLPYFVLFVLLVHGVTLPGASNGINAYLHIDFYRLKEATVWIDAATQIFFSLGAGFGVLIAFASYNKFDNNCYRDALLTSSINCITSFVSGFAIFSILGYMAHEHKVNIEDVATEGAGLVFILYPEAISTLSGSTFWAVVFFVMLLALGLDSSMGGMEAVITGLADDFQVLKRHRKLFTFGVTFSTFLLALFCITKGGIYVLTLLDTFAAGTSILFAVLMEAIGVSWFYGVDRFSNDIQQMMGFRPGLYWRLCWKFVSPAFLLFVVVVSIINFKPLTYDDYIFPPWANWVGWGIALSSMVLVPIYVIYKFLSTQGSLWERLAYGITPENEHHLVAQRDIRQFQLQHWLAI
Nature of the experiment: Eurofins Cerep competition binding assay at norepinephrine transporter. The following applies: read-out: NET, percent of control-specific binding, 10 μM test ligand, [3H]nisoxetine, recombinant transporter from CHO cells.

T3 sequence (P48039 whole entry): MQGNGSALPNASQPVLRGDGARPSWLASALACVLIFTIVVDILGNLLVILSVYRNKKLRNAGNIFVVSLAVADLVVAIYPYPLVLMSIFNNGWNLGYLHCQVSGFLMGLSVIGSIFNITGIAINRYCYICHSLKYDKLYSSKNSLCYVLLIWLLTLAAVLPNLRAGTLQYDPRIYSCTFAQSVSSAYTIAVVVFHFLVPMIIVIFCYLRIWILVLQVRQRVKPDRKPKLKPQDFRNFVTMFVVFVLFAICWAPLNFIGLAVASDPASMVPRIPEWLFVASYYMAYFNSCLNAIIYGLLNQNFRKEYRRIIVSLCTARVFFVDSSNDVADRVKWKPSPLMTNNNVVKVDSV
T7 sequence (Q01959 whole entry): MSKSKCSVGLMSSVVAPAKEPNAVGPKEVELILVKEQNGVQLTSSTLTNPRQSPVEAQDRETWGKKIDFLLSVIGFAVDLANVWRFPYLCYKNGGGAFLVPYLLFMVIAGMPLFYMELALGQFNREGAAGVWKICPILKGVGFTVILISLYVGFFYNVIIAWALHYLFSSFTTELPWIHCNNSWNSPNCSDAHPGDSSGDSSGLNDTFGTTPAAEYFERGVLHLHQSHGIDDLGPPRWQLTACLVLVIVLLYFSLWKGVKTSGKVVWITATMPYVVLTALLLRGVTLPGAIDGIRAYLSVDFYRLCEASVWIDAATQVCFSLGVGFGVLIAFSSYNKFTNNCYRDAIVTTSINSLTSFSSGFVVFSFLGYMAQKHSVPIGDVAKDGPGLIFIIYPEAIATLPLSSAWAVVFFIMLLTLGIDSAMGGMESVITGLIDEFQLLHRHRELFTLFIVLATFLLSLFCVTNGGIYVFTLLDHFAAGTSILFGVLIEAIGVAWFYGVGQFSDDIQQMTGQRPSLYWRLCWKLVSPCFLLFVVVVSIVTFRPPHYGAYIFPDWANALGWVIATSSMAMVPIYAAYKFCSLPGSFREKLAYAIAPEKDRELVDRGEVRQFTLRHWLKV

As for `CC(C(=O)c1ccc2c(c1)OCO2)N(C)Cc1ccccc1` (racemic) [A(III)], the inhibition at 10 µM is 7% at 5-HT2C receptor; 42% at alpha2A receptor; 77% on MT1 receptor; 4% at 5-HT1A receptor [1]; 5% in [3]; 0% at 5-HT7 receptor. Also, the inhibition at 10 µM in [5] was 74%; on 5-HT2B receptor it was 32%; in experiment [6], 38%. The EC50 (usually the concentration that produces a half-maximal response) at 5-HT1A receptor [2] was over 1000 µM. For the same compound, the Ki – broadly, the dissociation constant of the complex between target and ligand, obtained from inhibition or displacement – worked out at 49 µM on 5-HT1A receptor [4] and 53 µM at 5-HT2A receptor.

As for `N[C@@H](Cc1c[nH]c2ccccc12)C(=O)O` [tryptophan], the inhibition at 10 µM at 5-HT2C receptor was 25%; at alpha2A receptor, -4%; on MT1 receptor, -2%; on 5-HT1A receptor [1], 6%; in experiment [3], 1%; on 5-HT7 receptor, 11%. The inhibition at 10 µM in experiment [5] turned out to be 1%; on 5-HT2B receptor it was 0%; in experiment [6], 1%. The Ki at 5-HT1A receptor [4] and at 5-HT2A receptor was over 1000 µM throughout.

For the origin of these results see patent publication US12195439B1, “C1-substituted isopropylamine fused heterocyclic mescaline derivatives” (Enveric Biosciences Canada Inc., priority 2022, dated 2025).
